{"source": "patent US8952035B2", "about": "“Combination of anti-angiogenic substance and anti-tumor platinum complex” (Eisai R&D Management Co., Ltd., priority 2008, dated 2015)", "key": {"[1]": {"test_system": "Human non-small-cell lung cancer cell line A549", "assay": "Combination use of E7080 and carboplatin in subcutaneous transplanted models (in vivo) of A549", "parameters": "species or system nude mouse", "conditions": "alone", "protocol": "Human non-small-cell lung cancer cell line A549 (purchased from Dainippon Sumitomo Pharma Co., Ltd) was cultured in RPMI1640 (containing 10% FBS) in a 5% carbon dioxide gas incubator at 37° C. to about 80% confluence, and then the cells were collected with trypsin-EDTA. A 1×10^8 cells/mL suspension was prepared with a phosphate buffer, which was further added with matrigel matrix (purchased from Becton, Dickinson and Co.) to give a 5×10^7 cells/mL suspension, and each 0.2 mL of the resulting cell suspension was subcutaneously transplanted to a nude mouse at the side of its body. Eleven days after the transplantation, 4-(3-chloro-4-(cyclopropylaminocarbonyl)aminophenoxy)-7-methoxy-6-quinolinecarboxamide (E7080) was orally administered for 3 or 10 mg/kg, once a day for four weeks, while 100 mg/kg of carboplatin was administered into the tail vein on the first day. The major and minor axes of tumors were measured with Digimatic caliper (Mitsutoyo Corporation), and tumor volumes and relative tumor volumes were calculated according to the following formulae: Tumor Volume (TV)=Major axis of tumor(mm)×(Minor axis of tumor)^2(mm^2)/2 Relative Tumor Volume (RTV)=Tumor volume on measurement day/Tumor volume on the first administration day.\nTables 4 and 5 show anti-tumor effects obtained by the use of E7080 alone, the use of carboplatin alone and the combination use of E7080 and carboplatin in subcutaneous transplanted A549 models. The first day of administration was considered Day 1."}, "[2]": {"test_system": "Human non-small-cell lung cancer cell line A549", "assay": "Combination use of E7080 and cisplatin in subcutaneous transplanted models (in vivo) of A549", "parameters": "species or system nude mouse", "conditions": "alone", "protocol": "Human non-small-cell lung cancer cell line A549 (purchased from Dainippon Sumitomo Pharma Co., Ltd) was cultured in RPMI1640 (containing 10% FBS) in a 5% carbon dioxide gas incubator at 37° C. to about 80% confluence, and then the cells were collected with trypsin-EDTA. A 1×10^8 cells/mL suspension was prepared with a phosphate buffer, which was further added with matrigel matrix (purchased from Becton, Dickinson and Co.) to give a 5×10^7 cells/mL suspension, and each 0.2 mL of the resulting cell suspension was subcutaneously transplanted to a nude mouse at the side of its body. Eleven days after the transplantation, 4-(3-chloro-4-(cyclopropylaminocarbonyl)aminophenoxy)-7-methoxy-6-quinolinecarboxamide (hereinafter, also referred to as “[…]”) was orally administered for 3, 10 or 30 mg/kg, once a day for four weeks, while 10 mg/kg of cisplatin was administered into the tail vein once a day. The major and minor axes of tumors were measured with Digimatic caliper (Mitsutoyo Corporation), and tumor volumes and relative tumor volumes were calculated according to the following formulae: Tumor Volume (TV)=Major axis of tumor(mm)×(Minor axis of tumor)^2(mm^2)/2 Relative Tumor Volume (RTV)=Tumor volume on measurement day/Tumor volume on the first administration day. […] Tables 1, 2 and 3 show anti-tumor effects obtained by the use of […] alone, the use of cisplatin alone and the combination use of […] and cisplatin in subcutaneous transplanted A549 models. The first day of administration was considered Day 1."}, "[3]": {"conditions": "E7080 3 mg/kg orally once a day for four weeks"}, "[4]": {"conditions": "E7080 10 mg/kg orally once a day for four weeks"}}, "data": [{"smiles": "N.N.O=C([O-])C1(C(=O)[O-])CCC1.[Pt+2]", "note": "[Carboplatin, carboplatin, reference compound]", "values": [{"measurement": "Relative tumor volume on Day 29 Average ± standard deviation", "setting": "[1]; Carboplatin 100 mg/kg into the tail vein on the first day", "value": "7.87 ± 1.05"}]}, {"smiles": "N.N.[Cl][Pt][Cl]", "note": "[Cisplatin, cisplatin, reference compound]", "values": [{"measurement": "Relative tumor volume on Day 29 Average ± standard deviation", "setting": "[2]; Cisplatin 10 mg/kg into the tail vein", "value": "7.99 ± 0.88"}]}, {"smiles": "COc1cc2nccc(Oc3ccc(NC(=O)NC4CC4)c(Cl)c3)c2cc1C(N)=O", "note": "[E7080, 4-(3-chloro-4-(cyclopropylaminocarbonyl)aminophenoxy)-7-methoxy-6-quinolinecarboxamide]", "values": [{"measurement": "Relative tumor volume on Day 29 Average ± standard deviation", "setting": "[2]; [3]", "value": "2.24 ± 0.34"}, {"measurement": "Relative tumor volume on Day 29 Average ± standard deviation", "setting": "[2]; [4]", "value": "1.81 ± 0.29"}, {"measurement": "Relative tumor volume on Day 29 Average ± standard deviation", "setting": "[2]; E7080 30 mg/kg orally once a day for four weeks", "value": "1.20 ± 0.21"}, {"measurement": "Relative tumor volume on Day 29 Average ± standard deviation", "setting": "[1]; [3]", "value": "2.24 ± 0.34"}, {"measurement": "Relative tumor volume on Day 29 Average ± standard deviation", "setting": "[1]; [4]", "value": "1.81 ± 0.29"}]}]}
